Data on two substances can be found in patent US10072282B2, “Modulators for SIRT6 and assays for screening same” (Cornell University, priority 2010, dated 2018).

The target of one experiment is PfSir2a (Plasmodium falciparum, UniProt Q8IE47). The experiment in a line: Fluorogenic acyl peptide-AMC assay with PfSir2a. The class given is biochemical. As to conditions: AMC released by trypsin, fluorescence. The source says:
(§1) FIGS. 6A, 6B. Charts showing the difference between fluorogenic acetyl peptide-AMC substrate (A) and heptyl peptide-AMC substrate (B) detection ability of Sirt6 and PfSir2 activity.
(§2) With respect to the first reaction (deacylation by Sirt6, PfSir2a, or Sirt7), the pH for the reaction can be selected by taking the optimal pH of Sirt6, PfSir2a, or Sirt7 into consideration. The pH is typically adjusted to a pH of 6.0 to 8.5, or more particularly, a pH of 6.8 to 8.5. The reaction buffer preferably provides the above-mentioned pH. For example, Tris-HCl, HEPES-KOH, and other such buffers may be used in the instant method. More specifically, for example, 20 mM Tris-HCl having a pH of 7.4 can be used. Generally, NAD is a co-substrate required for Sirt6, PfSir2a, or Sirt7 functioning, and is typically used at about 0.5 mM concentration. Salts and preservatives are generally also included in the reaction solution. […]
(§3) For sirtuins with robust deacetylase activity, a fluorogenic assay has been used to detect the activity and screen for inhibitors/activators (FIG. 5, top). […] After a sirtuin removes the acetyl group, the AMC can be released by trysin, which produces a fluorescence signal. Thus, the presence of a compound that can change the activity of sirtuin being analyzed can be detected by monitoring the fluoroscence released in the reaction. […]

For another experiment, the target named is Sirt6 (Homo sapiens, UniProt Q8N6T7). The experiment in a line: Fluorogenic acyl peptide-AMC assay with Sirt6. Format: biochemical. As to conditions: AMC released by trypsin, fluorescence.
Chain of Sirt6 (Q8N6T7 whole entry): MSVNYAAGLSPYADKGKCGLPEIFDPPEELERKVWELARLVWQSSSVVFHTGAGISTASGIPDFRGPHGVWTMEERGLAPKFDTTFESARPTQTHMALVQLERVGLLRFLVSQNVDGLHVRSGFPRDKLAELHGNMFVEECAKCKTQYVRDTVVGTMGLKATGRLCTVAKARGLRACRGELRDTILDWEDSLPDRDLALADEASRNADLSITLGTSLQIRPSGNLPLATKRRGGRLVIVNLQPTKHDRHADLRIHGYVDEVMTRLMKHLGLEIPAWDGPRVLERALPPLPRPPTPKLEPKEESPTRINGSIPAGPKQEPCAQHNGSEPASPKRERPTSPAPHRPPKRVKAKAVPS
Text: as §1, §2, §3

Chain of PfSir2a (Q8IE47 whole entry): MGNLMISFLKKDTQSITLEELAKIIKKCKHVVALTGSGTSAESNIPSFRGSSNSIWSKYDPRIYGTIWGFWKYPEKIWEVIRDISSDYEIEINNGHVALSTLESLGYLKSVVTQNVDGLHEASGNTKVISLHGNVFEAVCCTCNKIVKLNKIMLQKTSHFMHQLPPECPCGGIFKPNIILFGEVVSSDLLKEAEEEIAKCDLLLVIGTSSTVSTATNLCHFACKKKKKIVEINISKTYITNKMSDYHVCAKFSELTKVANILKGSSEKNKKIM

As to “ISGASE(acetyl-K)-AMC peptide [acetyl peptide-AMC]”, at PfSir2a, the “detection of PfSir2a activity with peptide-AMC substrate” value is recorded as “not detectable”. For the same substance, the “detection of Sirt6 activity with peptide-AMC substrate” value on Sirt6 is listed as “not detectable”.
“ISGASE(heptanoyl-K)-AMC peptide [heptanoyl peptide-AMC]”: the “detection of PfSir2a activity with peptide-AMC substrate” value on PfSir2a was “can be used to detect the activity of Sirt6 and PfSir2a”. Also, the “detection of Sirt6 activity with peptide-AMC substrate” value on Sirt6 was “can be used to detect the activity of Sirt6 and PfSir2a”.
